Tests used:
JAK2 = JAK2 (Homo sapiens, UniProt O60674); assay: ADP-Glo kinase inhibition assay, JAK2
From the text: (§1) A drug screening system based on kinases JAK1, JAK2, JAK3, and TYK2 was used to detect the inhibitory ability of small molecule compounds on kinase activity. A kinase undergoes an enzymatic reaction with its substrates IRS1, IGF1Rtide, and Poly (4:1 Glu, Tyr), consuming ATP to produce ADP, wherein the ADP-Glo reagent and luminescence method were used to detect the amount of the product to reflect the activity of the kinase.
(§2) For TYK2 inhibition activity testing, the starting concentration was 10 μM with 1:4 serial dilution. Test compounds were used at a starting concentration of 0.5 μM with 1:4 serial dilution.
(§3) Transfer 4 μL of ADP-Glo reagent to the 384-well plate, which was centrifuged at 1000 rpm for 1 minute, and incubated at 25° C. for 40 minutes.
(§4) Transfer 8 μL of the test solution to the 384-well plate, which was centrifuged at 1000 rpm for 1 minute, and incubated at 25° C. for 40 minutes.
(§5) Read luminescence signals using a multimode microplate reader.
(§6) [formula] • Negative Control: DMSO • Positive Control: Tofacitinib
(§7) The following nonlinear regression equation was used to determine the compound's IC50(half-maximal inhibitory concentration). Data analysis was performed using GraphPad Prism 7.0 software.
(§8) [formula] • X: Logarithm of compound concentration; and Y: Inhibition rate (% Inhibition)

TYK2 = biological target: T1, TYK2 (Homo sapiens, UniProt P29597); assay: ADP-Glo kinase inhibition assay, TYK2
T1 sequence (P29597 897-1187 limits assumed): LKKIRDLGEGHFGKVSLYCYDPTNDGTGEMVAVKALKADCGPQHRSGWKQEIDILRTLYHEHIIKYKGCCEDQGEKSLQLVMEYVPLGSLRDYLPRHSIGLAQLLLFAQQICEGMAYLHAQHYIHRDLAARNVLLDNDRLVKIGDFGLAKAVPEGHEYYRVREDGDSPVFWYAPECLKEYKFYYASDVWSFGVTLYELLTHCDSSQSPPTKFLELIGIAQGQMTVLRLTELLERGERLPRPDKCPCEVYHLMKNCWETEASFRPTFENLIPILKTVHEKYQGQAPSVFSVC
From the text: as §1, §2, §3, §4, §5, §6, §7, §8

JAK3 = JAK3 (Homo sapiens, UniProt P52333); assay: ADP-Glo kinase inhibition assay, JAK3
Chain of JAK3 (P52333 795-1124 limits assumed): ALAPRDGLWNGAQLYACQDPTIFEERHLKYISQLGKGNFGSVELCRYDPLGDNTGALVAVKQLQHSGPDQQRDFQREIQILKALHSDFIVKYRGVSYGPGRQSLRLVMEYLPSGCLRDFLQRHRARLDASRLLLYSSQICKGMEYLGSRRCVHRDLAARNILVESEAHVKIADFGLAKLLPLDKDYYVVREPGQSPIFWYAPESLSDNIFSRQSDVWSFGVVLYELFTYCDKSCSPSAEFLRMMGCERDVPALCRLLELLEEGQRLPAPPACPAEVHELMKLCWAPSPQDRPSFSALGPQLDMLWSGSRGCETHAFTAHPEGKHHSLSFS
From the text: as §1, §2, §3, §4, §5, §6, §7, §8

JAK1 = JAK1 (Homo sapiens, UniProt P23458); assay: ADP-Glo kinase inhibition assay, JAK1
Chain of JAK1 (P23458 850-1154 limits assumed): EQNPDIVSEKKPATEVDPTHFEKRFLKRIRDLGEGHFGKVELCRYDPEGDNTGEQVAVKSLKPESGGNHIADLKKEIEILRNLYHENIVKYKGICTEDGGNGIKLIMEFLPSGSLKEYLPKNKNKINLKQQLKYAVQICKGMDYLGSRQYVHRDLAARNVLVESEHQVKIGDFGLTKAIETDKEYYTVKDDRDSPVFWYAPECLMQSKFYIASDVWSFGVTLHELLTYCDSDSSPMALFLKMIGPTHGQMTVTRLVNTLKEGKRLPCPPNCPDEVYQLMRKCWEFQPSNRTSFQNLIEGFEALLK
From the text: as §1, §2, §3, §4, §5, §6, §7, §8

[1] = tested on: itching caused by allergic dermatitis; settings: dogs, cited from earlier work

Chain of JAK2 (O60674 826-1132 limits assumed): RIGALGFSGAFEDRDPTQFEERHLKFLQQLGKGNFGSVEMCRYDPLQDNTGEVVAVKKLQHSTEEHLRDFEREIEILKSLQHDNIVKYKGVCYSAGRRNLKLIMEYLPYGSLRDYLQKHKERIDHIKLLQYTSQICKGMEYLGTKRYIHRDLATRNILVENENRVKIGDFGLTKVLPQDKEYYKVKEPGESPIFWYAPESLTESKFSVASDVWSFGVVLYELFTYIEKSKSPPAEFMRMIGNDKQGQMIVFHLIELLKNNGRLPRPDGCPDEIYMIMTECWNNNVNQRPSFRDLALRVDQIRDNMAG

In the case of [2H]C([2H])([2H])C([2H])([2H])c1cc(O)c(F)cc1-c1ccc2c(-c3nc4c([nH]3)CN(C(=O)N3CC[C@H](O)C3)C4)n[nH]c2c1 [Compound 3, (S)-(2-(6-(2-(Ethyl-d5)-5-fluoro-4-hydroxyphenyl)-1H-indazol-3-yl)-4,6-dihydropyrrolo[3,4-d]imidazol-5(1H)-yl) (3-hydroxypyrrolidin-1-yl) ketone methanesulfonate], the IC50 (JAK2) is reported as 0.015 nM, the IC50 (TYK2) is reported as 0.022 nM and the IC50 (JAK3) is reported as 0.044 nM. The IC50 (JAK1) was 0.0072 nM.

In the case of [2H]C([2H])([2H])c1cc(O)c(F)cc1-c1ccc2c(-c3nc4c([nH]3)CN(C(=O)NCCCO)C4)n[nH]c2c1 [Compound 7, 2-(6-(5-Fluoro-4-hydroxy-2-(methyl-d3)phenyl)-1H-indazol-3-yl)-N-(3-hydroxypropyl)-4,6-dihydropyrrolo[3,4-d]imidazole-5(1H)-carboxamide], the IC50 (JAK2) is reported as 0.014 nM, the IC50 (TYK2) is reported as 0.53 nM and the IC50 (JAK3) is reported as 0.25 nM. For the same compound, the IC50 (JAK1) was 0.07 nM.

[2H]C([2H])([2H])c1cc(O)c(F)cc1-c1ccc2c(-c3nc4c([nH]3)CN(C(=O)NC[C@@H](C)O)C4)n[nH]c2c1 [Compound 1, (R)-2-(6-(5-Fluoro-4-hydroxy-2-(methyl-d3)phenyl)-1H-indazol-3-yl)-N-(2-hydroxypropyl)-4,6-dihydropyrrolo[3,4-d]imidazole-5(1H)-carboxamide] gave an IC50 (JAK2) of 0.013 nM, an IC50 (TYK2) of 0.8 nM and an IC50 (JAK3) of 0.2 nM. For the same compound, the IC50 (JAK1) was 0.096 nM.

In the case of [2H]C([2H])([2H])c1cc(O)c(F)cc1-c1ccc2c(-c3nc4c([nH]3)CN(CC(C)O)C4)n[nH]c2c1 (stereo in doubt) [Compound 28], the IC50 (JAK2) is reported as 0.05 nM, the IC50 (TYK2) is reported as 6.4 nM and the IC50 (JAK3) is reported as 1 nM. The IC50 (JAK1) was 0.43 nM.

In the case of CNS(=O)(=O)C[C@H]1CC[C@H](N(C)c2ncnc3[nH]ccc23)CC1 [Olatinib], the “experimental animals that alleviated the itching response by more than 50%” value ([1]; on the 7th day) is listed as “more than 70%” and the “time to relieve itching” value ([1]; oral 0.4-0.6 mg/kg twice a day) is listed as no more than 24 h.

[2H]C([2H])([2H])c1cc(O)c(F)cc1-c1ccc2c(-c3nc4c([nH]3)CN(C)C4)n[nH]c2c1 [Compound 12, 2-Fluoro-5-(methyl-d3)-4-(3-(5-methyl-1,4,5,6-tetrahydropyrrolo[3,4-d]imidazol-2-yl)-1H-indazol-6-yl)phenol] gave an IC50 (JAK1) of 1.8 nM.

Work on [2H]C([2H])([2H])C([2H])([2H])c1cc(O)c(F)cc1-c1ccc2c(-c3nc4c([nH]3)CN(C(=O)N3CC[C@@H](O)C3)C4)n[nH]c2c1 [Compound 35] yielded an IC50 (JAK2) of 0.0088 nM, an IC50 (TYK2) of 0.085 nM and an IC50 (JAK3) of 0.095 nM. For the same compound, the IC50 (JAK1) was 0.0075 nM.

Compound [2H]C([2H])([2H])c1cc(O)c(F)cc1-c1ccc2c(-c3nc4c([nH]3)CN(C(=O)NC[C@H](C)O)C4)n[nH]c2c1 [Compound 4, (S)-2-(6-(5-Fluoro-4-hydroxy-2-(methyl-d3)phenyl)-1H-indazol-3-yl)-N-(2-hydroxypropyl)-4,6-dihydropyrrolo[3,4-d]imidazole-5(1H)-carboxamide] has an IC50 (JAK2) of 0.015 nM, an IC50 (TYK2) of 1 nM and an IC50 (JAK3) of 0.26 nM. For the same compound, the IC50 (JAK1) was 0.1 nM.

In the case of [2H]C([2H])([2H])c1cc(O)c(F)cc1-c1ccc2c(-c3nc4c([nH]3)CN(C(=O)N(C)C)C4)n[nH]c2c1 [Compound 9, 2-(6-(5-Fluoro-4-hydroxy-2-(methyl-d3)phenyl)-1H-indazol-3-yl)-N,N-dimethyl-4,6-dihydropyrrolo[3,4-d]imidazole-5(1H)-carboxamide], the IC50 (JAK2) is reported as 0.008 nM, the IC50 (TYK2) is reported as 0.43 nM and the IC50 (JAK3) is reported as 0.32 nM. It also gave an IC50 (JAK1) of 0.071 nM.

With [2H]C([2H])([2H])c1cc(O)c(F)cc1-c1ccc2c(-c3nc4c([nH]3)CN(C(=O)N3CCC(O)CC3)C4)n[nH]c2c1 [Compound 19] the IC50 (JAK2) was 0.005 nM, the IC50 (TYK2) was 0.3 nM and the IC50 (JAK3) was 0.18 nM. For the same compound, the IC50 (JAK1) was 0.032 nM.

Compound [2H]C([2H])([2H])c1cc(O)c(F)cc1-c1ccc2c(-c3nc4c([nH]3)CN(C(=O)N3CC[C@H](O)C3)C4)n[nH]c2c1 [Compound 6, (S)-(2-(6-(5-Fluoro-4-hydroxy-2-(methyl-d3)phenyl)-1H-indazol-3-yl)-4,6-dihydropyrrolo[3,4-d]imidazole-5(1H)-yl)(3-hydroxypyrrolidin-1-yl)ketone] has an IC50 (JAK2) of 0.013 nM, an IC50 (TYK2) of 0.32 nM and an IC50 (JAK3) of 0.19 nM. The IC50 (JAK1) was 0.086 nM.

For [2H]C([2H])([2H])c1cc(O)c(F)cc1-c1ccc2c(-c3nc4c([nH]3)CN(C(=O)NCC(C)O)C4)n[nH]c2c1 (stereo not shown) [Compound 5, 2-(6-(5-Fluoro-4-hydroxy-2-(methyl-d3)phenyl)-1H-indazol-3-yl)-N-(2-hydroxypropyl)-4,6-dihydro-pyrrolo[3,4-d]imidazole-5(1H)-carboxamide], the IC50 (JAK2) was 0.01 nM, the IC50 (TYK2) was 1.6 nM and the IC50 (JAK3) was 0.3 nM. The IC50 (JAK1) was 0.2 nM.

With [2H]C([2H])([2H])c1cc(O)c(F)cc1-c1ccc2c(-c3nc4c([nH]3)CN(C(=O)OC)C4)n[nH]c2c1 [Compound 18] the IC50 (JAK2) was 0.61 nM.

[2H]C([2H])([2H])c1cc(O)c(F)cc1-c1ccc2c(-c3nc4c([nH]3)CN(C(=O)N3CC[C@@H](O)C3)C4)n[nH]c2c1 [Compound 8, (R)-(2-(6-(5-Fluoro-4-hydroxy-2-(methyl-d3)phenyl)-1H-indazol-3-yl)-4,6-dihydropyrrolo[3,4-d]imidazole-5(1H)-yl)(3-hydroxypyrrolidin-1-yl)ketone] gave an IC50 (JAK2) of 0.004 nM, an IC50 (TYK2) of 0.19 nM and an IC50 (JAK3) of 0.16 nM. The IC50 (JAK1) was 0.045 nM.

[2H]C([2H])([2H])c1cc(O)c(F)cc1-c1ccc2c(-c3nc4c([nH]3)CN(C(=O)C3CC3)C4)n[nH]c2c1 [Compound 2, Cyclopropyl (2-(6-(5-fluoro-4-hydroxy-2-(methyl-d3)phenyl)-1H-indazol-3-yl)-4,6-dihydropyrrolo[3,4-d]imidazol-5(1H)-yl) ketone] gave an IC50 (JAK2) of 0.017 nM, an IC50 (TYK2) of 1.2 nM and an IC50 (JAK3) of 0.28 nM. The IC50 (JAK1) was 0.19 nM.

With [2H]C([2H])([2H])c1cc(O)c(F)cc1-c1ccc2c(-c3nc4c([nH]3)CN(C(=O)NC)C4)n[nH]c2c1 [Compound 13] the IC50 (JAK2) was 0.012 nM, the IC50 (TYK2) was 0.43 nM and the IC50 (JAK3) was 0.22 nM. For the same compound, the IC50 (JAK1) was 0.077 nM.

[2H]C([2H])([2H])C([2H])([2H])c1cc(O)c(F)cc1-c1ccc2c(-c3nc4c([nH]3)CN(C(=O)N(C)C)C4)n[nH]c2c1 [Compound 32] showed an IC50 (JAK2) of 0.032 nM, an IC50 (TYK2) of 0.3 nM and an IC50 (JAK3) of 0.2 nM. The IC50 (JAK1) was 0.025 nM.

[2H]C([2H])([2H])c1cc(O)c(F)cc1-c1ccc2c(-c3nc4c([nH]3)CN(C(=O)N3CCOCC3)C4)n[nH]c2c1 [Compound 10] showed an IC50 (JAK2) of 0.0097 nM, an IC50 (TYK2) of 0.37 nM and an IC50 (JAK3) of 0.3 nM. The IC50 (JAK1) was 0.092 nM.

— patent US20260166012A1 (MEDINNO PHARMACEUTICAL TECHNOLOGY (ZHUHAI) CO., LTD., priority 2023, published 2026)
